The record followed here is a melting point compilation (Tetko et al.; mined from patent text by program, amines drawn as free bases though some values may be those of a salt).

Structures are written as SMILES. A value given as a limit tells only on which side of the number the result lay.

A word on the melting point: it is the temperature of the solid-liquid transition. The compound `O=C(O)C=CC(=O)c1ccc(Oc2ccccc2Cl)cc1` showed a melting point of 145 to 147 °C.
For `CCOc1cc([C@@H](CS(C)(=O)=O)N2Cc3cccc(NCC4CC4)c3C2=O)ccc1OC` the value was 147 to 149 °C; for `CC(C)(C)C(=O)Nc1ccc(F)cc1-c1ccc(Cl)c(Cl)c1`, 130 to 131 °C; for `Cc1ccc2oc(-c3ccccc3)nc2n1`, 148 to 149 °C.
The result for `COc1ccc2c(c1)C(=NN1CCOC1=O)CCO2` reads 54 to 64 °C; that for `COc1ccc2[nH]cc(-c3cc4c(OC)ncnc4[nH]3)c2c1`, above 260 °C.
The result for `CC1(C)COC(c2cc(-c3ccncc3)n(-c3ccc(F)cc3)n2)OC1` reads 150 to 151 °C.
Compound `Cc1c(CCCCCCC(=O)O)cccc1C(=O)c1ccc(Cl)cc1` came in with a melting point of 84 °C.
The result for `COc1ccc(C2=NN(C3CCN(S(=O)(=O)c4ccccc4OC(F)(F)F)CC3)C(=O)C(C)(C)C2)cc1OC` reads 143 to 144 °C; that for `O=S1CCN(c2ccc(-n3cc(CN=C=S)nn3)cc2F)CC1`, 182 to 184 °C.
`CCOc1ccc(S(=O)(=O)N2CCNCC2)cc1-c1nc2c(C)cccc2c(=O)[nH]1` yielded a melting point of 163 to 165 °C.
The result for `C=C(C)c1ccc(C(C)(C)OOC(C)(C)c2ccccc2)cc1` reads 40 °C.
The result for `CC1(C)O[C@H]2[C@H](OCc3ccccc3)O[C@H](C(=O)O)[C@H]2O1` reads 79 °C; that for `CC(=Cc1ccc(C(=O)O)cc1)c1cc2c(cc1C)C(C)(C)CCC2(C)C`, 91 to 92 °C; that for `O=C(NCc1ccc(Cl)cc1)c1cc(F)c2cccnc2c1O`, 184 to 185 °C.
For `Nc1nc(-c2ccc(F)c3ccccc23)co1` the value was 171 to 174 °C; for `O=C(O)C1CC1(C(=O)O)c1cccc([N+](=O)[O-])c1` (stereo unspecified), 167 to 170 °C; for `CCC(=O)N(C)c1cccc(C(=O)C=CN(C)C)c1`, 148 to 149 °C.
Compound `COc1ccc(N2C(=O)C(=C3CCCN3)c3ccccc32)cc1F` returned a melting point of 169 to 171 °C.
For `Nc1ncc(Oc2ccc(Cl)cc2)c(N2CCN(CCO)CC2)n1` the value was 121 to 123 °C.
For `CC(CO)(Sc1cc2ccccc2[nH]1)c1ccccc1` (stereo unspecified) the value was 126 to 127 °C; for `CCC1c2ccc(C#N)n2-c2ccc(F)cc2N1S(=O)(=O)c1ccc(O)cc1` (stereo unspecified), 169 to 171 °C; for `C[C@@H](NS(=O)(=O)N1CCN(c2ccc(OCc3ccc4ccccc4c3)cc2)CC1)C(=O)O`, 167 to 171 °C.
The result for `NC(=O)N(O)C[C@@H]1C[C@H]1c1cccc(Oc2ccncc2)c1` (relative stereo) reads 130 to 132 °C.
Compound `Clc1cccc(-c2nnnn2-c2cccnc2)c1Cl` gave a melting point of 124 to 126 °C.
For `CC(=O)Nc1ccc(S(=O)CC(=O)C23CC4CC(CC(C4)C2)C3)cc1` (stereo unspecified) the value was 174 to 176 °C.
In turn, `COc1cc2c(Nc3ccc4cn[nH]c4c3)c(C#N)cnc2cc1OCCN(C)CC1OCCO1` registered a melting point of 185 to 187 °C.
For `CCCc1c(O)c(Br)cc(C(C)=O)c1O` the value was 67 °C; for `Fc1cc2c(cc1F)CC(n1c(-c3nnn[nH]3)c[nH]c1=S)C2`, 142 to 147 °C; for `N#Cc1ccc2c(c1)CCC(c1ccccc1F)=C2CCO`, 119 °C.
The result for `O=C(CCC(=O)[C@H](Cc1ccccc1)NC(=O)c1ccccc1)N[C@@H](Cc1c[nH]c2ccccc12)C(=O)O` reads 171 to 173 °C; that for `CCOC(=O)c1cn(CCN(CC)CC)c2oc(CN3CCOCC3)cc2c1=O`, 131 to 134 °C; that for `O=C(CCCCN1CCC(Cc2ccccc2)CC1)c1ccc2c(c1)C(=O)c1cc(C(=O)CCCCN3CCC(Cc4ccccc4)CC3)ccc1-2`, 124 to 126 °C.
The result for `CC(C)(C)c1cc(I)c(O)c(C=O)c1` reads 77 °C; that for `N#Cc1c(Cl)[nH]c(-c2ccc(Cl)s2)c1Br`, above 200 °C.
Consider `COc1ccc(-c2nncn2-c2ccccc2)cc1`, for which the melting point lay within 139 to 140 °C.
The result for `O=C1Nc2cc(Cl)c(Cl)cc2C1(Br)c1ccccc1Cl` (stereo unspecified) reads 215 to 218 °C; that for `Nc1nc(F)nc2nc[nH]c12`, above 300 °C.
For `COC(=O)COc1cc2ccccc2c2c1c(C(=O)C(N)=O)c(C)n2Cc1cccc(-c2ccc(F)cc2)c1` the value was 157 to 159 °C; for `CCCCc1nc(Cl)c(C=CC(=O)OCC)n1Cc1ccc(NC(=O)c2ccccc2C(=O)O)cc1`, 180 to 181 °C.
For `O=C1c2ccccc2-c2c1c1ccccc1c(=O)n2CCCO` the value was 173 to 175 °C.
`C=CCOc1cc(N2C(=O)C3CCCCN3C2=O)c(F)cc1C#N` (stereo unspecified): the melting point stood at 132 °C.
For `CCOc1cc(Cc2cnc(N)nc2N)cc(OCC)c1N` the value was 192 to 194 °C.
The result for `N#CCC(=O)c1nn(-c2ccccc2)c2c1Cc1ccccc1-2` reads 189 to 190 °C; that for `CCc1c(C(=O)c2ccc(OC)cc2)c2cccc3c2n1C(CN1CCOCC1)CO3` (stereo unspecified), 186 to 187 °C; that for `O=C(CC(=Cc1cccc2ccccc12)C(=O)O)NCCc1ccccc1`, 183 to 187 °C.
Turning to `CC12C=CCC1C1CCC3=CC(=O)CCC3C1CC2` (stereo unspecified), the melting point is 67 to 71 °C.
The result for `CCOC(=O)C1=C(C)NC(c2cnc(C)s2)=NC1c1ccc(F)cc1Cl` (stereo unspecified) reads 107 to 111 °C; that for `O=C(c1ccc(Cl)cc1)c1cc2ccccc2cc1O`, 135 to 137 °C.
The result for `CCCc1nc2c(N)nc(C)c(C)c2n1CCCCN(O)C(=O)c1ccccc1` reads 132 to 134 °C; that for `N#CNC(=Nc1ccncc1)NCCOc1ccccc1`, 167 to 170 °C.
For `CC(C)(CF)C(O)(Cn1ncnc1S)C(Cl)=CCl` (stereo unspecified) the value was 162 to 164 °C.
The compound `Cc1cc(C)nc(NC2CCC(CCN3CCN(c4ccccc4)CC3)CC2)n1` (stereo unspecified) had a melting point of 127 to 129 °C.
For `O=C1C[C@H](O)C(=O)N1Cc1ccccc1`, the melting point lay within 110 to 113 °C.
The result for `Cc1noc2ncnc(NCCC(C)C)c12` reads 133 °C; that for `COc1cc(C)c(C)cc1NC(=O)N1CCN(c2cccc(O)c2)CC1`, 177 to 178 °C; that for `Nc1ccc(NC(=O)c2ccc(C(=O)Nc3ccc(N)cc3Cl)cc2)c(Cl)c1`, 261 °C.
For `OCC1OC(OCc2ccccc2)C(O)C1O` (stereo unspecified) the value was 95 °C.
For `Cc1cc(SC(C)C)c(NC(=O)CCCCCCSc2nc3ccccc3s2)c(SC(C)C)n1` the value was 74 to 76 °C; for `O=C(O)c1ccc2sc(Cc3cccnc3)cc2c1`, 246 to 249 °C.
`CC(Cc1ccc(OCC(=O)O)cc1)NS(=O)(=O)c1ccc(Cl)cc1` (stereo unspecified) had a melting point of 132 to 136 °C.
The result for `COC(=O)Cc1ccc(OCCNC(=O)C2Cc3ccccc3N2S(=O)(=O)c2ccc(-c3cc(C(F)(F)F)ccc3Cl)cc2)cc1` (stereo unspecified) reads 60 °C; that for `COc1cc2c(=O)c(S(=O)(=O)N(C)C)cn(C)c2cc1C`, 232 to 233 °C.
The result for `O=C(C=P(c1ccccc1)(c1ccccc1)c1ccccc1)N1CCCCC1` reads 180 to 188 °C.
`CSCc1cnc2ccccc2c1O` gave a melting point of 196 to 197 °C.
For `COC(=O)NC(=O)Nc1nc2c(Cl)cccc2s1` the value was 319 to 320 °C; for `C#CC1(OCc2ccccc2F)CCN(C(C)=O)CC1`, 59 to 62 °C; for `CCn1c(Cl)nc2ccccc21`, 48 to 50 °C.
Turning to `c1c(N2CCCC2)nc(N2CCNCC2)nc1N1CCCC1`, the melting point was 152 to 160 °C.
In turn, `CCCCCCCN(C[C@H]1CCC[C@H](CN(CCCCCCC)C(=O)Nc2ccc(N(C)C)cc2)C1)C(=O)Nc1ccc(N(C)C)cc1` (relative stereo) registered a melting point of 121 to 126 °C.
For `CCc1cc(C2(c3ccc(F)c(-c4cncc(F)c4)c3)N=C(N)N(C)C2=O)cc(CC)n1` (stereo unspecified) the value was 155 to 157 °C; for `CC(=O)ON=C(c1ccc(OC(C)=O)cc1O)c1ccccc1F`, 132 to 134 °C.
For `NC(=O)c1nccn1C1Cc2cc(Br)ccc2C1=O` (stereo unspecified) the value was 240 °C; for `Cc1cn(-c2cc(C=O)c(N)c(C(F)(F)F)c2)c(C)n1`, 200 to 202 °C.
For `COc1ccc(C(=O)Oc2ccc(C(=O)OCc3ccccc3)c(O)c2)cc1C12CC3CC(CC(C3)C1)C2` the value was 171 to 172 °C; for `CC(CO)c1ccc(-c2ccccc2F)c(F)c1` (stereo unspecified), 80 to 82.5 °C; for `Cc1c(N)cccc1C1=NC(C)(C)CO1`, 45 °C.
Compound `CCCCOC(=O)N=C(NC(=O)c1ccccc1)SC` came in with a melting point of 99 to 101 °C.
For `O=C(O)c1ccc(CCc2n[nH]c3c2c(=O)n(-c2ccccc2)c2ncccc32)cc1` the value was 318 to 320 °C; for `CCCOc1ccccc1-c1nc(C=O)c[nH]1`, 104 to 105 °C; for `O=Cc1ccc2c(c1)Sc1ccccc1C=C2`, 114 to 116 °C.
For `COC(=O)C1C(=O)NC(C)C1c1c(Cl)cccc1Cl` (stereo unspecified) the value was 157 to 158 °C; for `Cc1nc(N)nc(N)c1OCCCOc1ccccc1C(F)(F)F`, 132 to 134 °C; for `CNS(=O)(=O)NC(C)C`, 50 to 52 °C.
For `CCc1ccc(N2CCOCC2)c(NC(C)=O)c1` the value was 82 °C; for `CCOC(=O)Cc1cnn(CC)c1O`, 107 to 108 °C.
Regarding `Cc1nn(CCO)c(C)c1Sc1cc(Cl)cc(Cl)c1`, the melting point fell in the range of 118 to 120 °C.
For `Cc1cccc(C2CCN(C(=O)Oc3ccccc3)CC2)c1` the value was 127 to 130 °C; for `CC(=O)Sc1ccc(C#Cc2ccc(C=O)cc2)cc1`, 128 to 129 °C.
For the compound `CCc1nn(C2CCCC2)c2cc(C(=O)Nc3c(Cl)cccc3Cl)ccc12`, the melting point was 177 to 179 °C.
Turning to `CO[C@@H](Cc1ccc(OCCc2nc(-c3ccc(C(F)(F)F)cc3)oc2C)c2ccccc12)C(=O)O`, the melting point was in the range of 167 to 168 °C.
